Assay results taken from patent publication US12390437B2, “Itaconic acid derivatives and uses thereof intreating an inflammatory disease or a disease associated with an undesirable immune response” (Sitryx Therapeutics Limited, priority 2019, dated 2025).
Counter-ions that a name gives are not always drawn.

Experiments:
Assay type in all cases: cell-based
[1] = system: NQO1; test: NQO1 enzyme activation assay as a readout of NRF2 activation in THP-1 cells; conditions: Homo sapiens; for Emax: THP-1, percentage activation at top concentration, normalised to DMF (100%) and vehicle controls; for EC50: differentiated THP-1 cells, LPS, 48 hr
Experimental: NQO1 Enzyme Activation Assay as a Readout of NRF2 Activation in THP-1 Cellular Background
NAD(P)H dehydrogenase [quinone] […] Induction of this gene is concomitant with the inhibition of proinflammatory cytokine transcription and suppression of the inflammatory response (Kobayashi E. H. et al., 2016). The NQO1 enzyme activation activities of compounds of formula (IW-1) were determined using a cellular based NQO1 activation assay (Abcam). The NQO1 activation assay was run in differentiated THP-1 cells (a human monocyte-like cell line) as described below. All reagents described are from Sigma-Aldrich unless specified otherwise. Compounds were prepared as 10 mM DMSO stocks.
THP-1 cells were expanded as a suspension up to 80% confluence in appropriate growth medium. Cells were harvested, suspended, treated with phorbol 12-myristate 13-acetate (PMA) and plated according to the cell density required for each plate format over a 72 hr period (37° C./5% CO2).
Following 72 hrs of THP-1 cell incubation, cellular medium was removed and replaced with fresh media. Working concentrations of compounds were prepared and pre-incubated for 30 minutes (37° C./5% CO2). Compound treatment was then applied to the PMA treated THP-1 cell plate followed by LPS treatment. A ‘low’ (DMSO vehicle only) control and ‘high’ (designated concentration of dimethyl fumarate) was applied to each plate at the point of compound treatment. Cells were subsequently incubated for a 48 hr period (37° C./5% C02) after which all NQO1 assay reagents were prepared according to the manufacturer's instructions. NQO1 extraction buffer was applied to PBS washed THP-1 cells and incubated on ice for 15 minutes to prepare THP-1 lysates for the NQO1 activity assay. THP-1 lysates were diluted 1:5 with PBS and treated with a 1:1 volume of kit prepared NQO1 Reaction Buffer. Absorbance was subsequently measured kinetically on an appropriate reader over a 6 minute period.
For activation determination, the fold change in response per well was determined by first calculating the average NQO1 activation data for the vehicle control and then dividing the individual well response by the averaged NQO1 response for the vehicle control as shown below: Fold change=(Sample value)/MeanMin Where ‘Min’=vehicle control only
The relative 50% activation concentration (EC50) was determined from the resulting fold change response curve. The maximum efficacy (Emax) was reported as the percentage activation calculated at the top concentration of compound used in the titration applied. If a full curve was unattainable preventing a correct curve fit, the Emax value was extrapolated using existing curve data. All percentage activation data were normalised to the DMF and vehicle controls, meaning the Emax represents the percentage […] achieved by a compound at a particular concentration relative to that achieved by DMF (set as the ‘High’ control and therefore representative of 100% activation).

[2] = system: IL-1β cytokine output from isolated primary human monocytes; test: Primary human monocyte AlphaLISA IL-1β cytokine assay; conditions: CD14+ primary human monocytes, LPS 24 hr then Nigericin 1 hour; for IC50: Monocyte
Experimental: Measuring Inhibitory Effects on IL-1β and IL-6 Cytokine Output from Isolated Primary Human Monocytes
(§1) The cytokine inhibition profiles of compounds of formula (IW-1) were determined in a CD14^+ isolated primary human monocyte cell assay. All assays were performed in RPMI-1640 growth medium (Gibco), supplemented with heat-inactivated fetal bovine serum (FBS) and 1% penicillin-streptomycin unless specified otherwise. The IL-1β and IL-6 cytokine inhibition assays were each run in a background of isolated primary human monocyte cells as described below. All reagents described were from Sigma-Aldrich unless specified otherwise. Compounds were prepared as 100 mM DMSO stocks.
Primary peripheral blood mononuclear cells (PBMCs) were isolated from human whole blood. Following PBMC isolation, a CD14^+ monocyte isolation step was conducted whereby CD14^+ magnetic beads (Miltenyi Biotec) were incubated for 15 minutes with the PBMC suspension that was previously treated with ice cold T-cell isolation buffer (PBS, 0.5% BSA, 2 mM EDTA). Following bead incubation, the treated cell suspension was passed through a magnetic separation column designed to positively select for magnetically labelled cells. The isolated CD14^+ monocytes were subsequently plated at the appropriate cell density for the assay, prior to compound treatment on the day of plating. Working concentrations of compounds were prepared separately in RPMI-1640 only growth medium and pre-incubated with the cells for 30 minutes (37° C./5% CO2). Following the 30 minute compound pre-incubation, primary monocytes were treated with an appropriate concentration of LPS and subsequently incubated for a 24 hr period (37° C./5% CO2). An appropriate final concentration of Nigericin was then dispensed into the primary monocyte plates and incubated for 1 hour (37° C./5% CO2) before monocyte supernatants were harvested and collected in separate polypropylene 96-well holding plates prior to commencing the AlphaLISA cytokine assay.
Reagents from each of the IL-1β and IL-6 commercial kits (Perkin Elmer) were prepared and run according to the manufacturer's instructions. Subsequently, fluorescence signal was measured in a microplate reader (EnVision® Multilabel Reader, Perkin Elmer).
(§2) Percentage inhibition was calculated per cytokine by normalising the sample data to the high and low controls used within each plate (+/−LPS respectively). Percentage inhibition was then plotted against compound concentration and the 50% inhibitory concentration (IC50) was determined from the resultant concentration-response curve.

[3] = system: IL-1β cytokine output from isolated primary HMDMs; test: Primary human monocyte derived macrophages (HMDMs) AlphaLISA IL-1β cytokine assay; conditions: primary HMDMs (M-CSF 7 day), LPS 24 hr then Nigericin 1 hour
Experimental: Measuring Inhibitory Effects on IL-1β Cytokine Output from Isolated Primary HMDMs
as §1, with “a” for “a CD14^+ isolated primary human”, “monocyte differentiated macrophage” for “monocyte”, “IL-1β” for “IL-1β and IL-6”, “assay was” for “assays were each”, “HMDM” for “human monocyte”
Primary peripheral blood mononuclear cells (PBMCs) were isolated from human whole blood. Following PBMC isolation, a CD14^+ monocyte isolation step was conducted whereby CD14^+ magnetic beads (Miltenyi Biotec) were incubated for 15 minutes with the PBMC suspension that was previously treated with ice cold T-cell isolation buffer (PBS, 0.5% BSA, 2 mM EDTA). Following bead incubation, the treated cell suspension was passed through a magnetic separation column designed to positively select for magnetically labelled cells. The isolated CD14^+ monocytes were subsequently plated at an appropriate cell density and treated fora 7 day period with M-CSF (BioLegend) to drive macrophage differentiation. Following the differentiation period, working concentrations of compounds were prepared separately in RPMI-1640 only growth medium and pre-incubated with the cells for 30 minutes (37° C./5% CO2). Following the 30 minute compound pre-incubation, primary HMDMs were treated with an appropriate concentration of LPS and subsequently incubated for a 24 hr period (37° C./5% CO2). Nigericin was added and incubated for 1 hour prior to harvesting primary HMDM supernatants and collected in separate polypropylene 96-well holding plates prior to commencing the AlphaLISA cytokine assay.
Reagents from the IL-1β commercial kit (Perkin Elmer) was prepared and run according to the manufacturer's instructions. Subsequently, fluorescence signal was measured in a microplate reader (EnVision® Multilabel Reader, Perkin Elmer).
as §2

Structure (SMILES) | EC50 [1] [µM] | IL-1β (IC50) [2] | IC50 [2] [µM] | IC50 [3] [µM] | Emax [1] [%]
C=C(CC(=O)OC)C(=O)OC [dimethyl itaconate, reference compound] | 74.1 |  |  |  | 144
C=C(CC(=O)O[C@H](C)CCCCCC)C(=O)OCC(=O)O [Example 112, (R)-2-((2-methylene-4-(octan-2-yloxy)-4-oxobutanoyl)oxy)acetic acid] |  |  | 13.7 |  | 
C=C(CC(=O)OCCCCCCCC)C(=O)OC1COC1 [Example 4, 4-octyl 1-(oxetan-3-yl) 2-methylenesuccinate] | 13.6 |  |  | 0.4 | 171
C=C(CC(=O)OC1CCCCCCC1)C(=O)OCC(=O)O [Example 90, 2-((4-(cyclooctyloxy)-2-methylene-4-oxobutanoyl)oxy)acetic acid] |  |  | 81.3 |  | 
C=C(CC(=O)O[C@H](C)CCCCCC)C(=O)OCCC(=O)O [Example 88, (R)-3-((2-methylene-4-(octan-2-yloxy)-4-oxobutanoyl)oxy)propanoic acid] |  |  | 17.3 |  | 

Further compounds by falling IC50 [2], results first:

EC50 [1] [µM] | IL-1β (IC50) [2] | IC50 [2] [µM] | IC50 [3] [µM] | Structure (SMILES) | Emax [1] [%]
6.9 |  | 8.9 | 0.4 | C=C(CC(=O)OCCCCCCCC)C(=O)OCCC#N [Example 1, 1-(2-cyanoethyl) 4-octyl 2-methylenesuccinate] | 167
12.9 |  | 8.5 | 2 | COC(=O)/C=C/C(=O)OC [dimethyl fumarate, reference compound] | 126
14.7 | lower IC5s than dimethyl fumarate | 3.9 | 0.7 | C=C(CC(=O)OCCCCCCCC)C(=O)OCCC(F)(F)F [Example 3, 4-octyl 1-(3,3,3-trifluoropropyl) 2-methylenesuccinate] | 91
4.6 | lower IC5s than dimethyl fumarate | 3.6 | 0.3 | C=C(CC(=O)OCCCCCCCC)C(=O)OCCS(C)(=O)=O [Example 2, 1-(2-(methylsulfonyl)ethyl) 4-octyl 2-methylenesuccinate] | 213
9.8 | lower IC5s than dimethyl fumarate | 3.3 | 1.2 | C=C(CC(=O)OCCCCCCCC)C(=O)OCCN1C(=O)CCC1=O [Example 9, 1-(2-(2,5-dioxopyrrolidin-1-yl)ethyl) 4-octyl 2-methylenesuccinate] | 98
